Measurements published in patent publication US9320743B2, “Use of 5α-androstane-3β,5,6β-triol in preparation of neuroprotective drugs” (GUANGZHOU CELLPROTEK PHARMACEUTICAL LTD., priority 2010, dated 2016).

Assays:
Type in all cases: cell-based, rat
[1] = test system: cortical neurons; assay: Glutamate-induced excitotoxicity of cortical neurons; conditions: 200 μM glutamate, 24 hours
Protocol: (§1) Cortex with meninges and blood vessels removed were obtained from newborn (1-day old) rats. 0.05 g/L DNase I was used to pipette the cell to single cell suspension following 0.25 g/L trypsin digestion. The suspension was then centrifuged to collect precipitation and diluted it with DMEM-F12 medium containing 5% (v/v) FBS and 2% B27. The cell was seeded on dishes pre-coated with poly-lysine. 24 hours following the seeding, 10 μM Ara-C was added to inhibit growth and proliferation of non-neuron cells. Half medium change was performed 2-3 times per week. Experiments were carried out on the 10 DIV.
(§2) The primary cultured cortical neurons at 10 DIV were divided into four groups: control group, glutamate group, MK801+glutamate group, and YC-6+glutamate group. The control group received no treatment. The glutamate group was treated with 200 μM glutamate. The MK801 group and the YC-6 group were pre-treated with MK801 (10 nM) and YC-6 with different concentrations, respectively, followed by incubation at 37° C. for 30 minutes, then glutamate was added. After 24 hours, phase contrast microscope was used to observe neuronal morphologies. The cells were stained by FDA and observed under inverted fluorescent microscope for cell counting to calculate survival rate of neurons. The activity of lactate dehydrogenase (LDH) was also determined for each group. Survival Rate=Number of live cells for each group/Number of live cells in the control group*100%

[2] = test system: cerebellar granule neurons; assay: Glutamate-induced excitotoxicity of cerebellar granule neurons; conditions: 200 μM glutamate, 24 hours
Protocol: Cerebella with meninges and blood vessels removed were obtained from 7-8 days old rats weighted 15-20 g. 0.05 g/L DNase I was used to pipette the cell to single cell suspension following 0.25 g/L trypsin digestion. The suspension was then centrifuged to collect precipitation and resuspended with BME medium containing 10% (v/v) FBS and 25 mM KCl. The cells were then seeded on dishes pre-coated with poly-lysine. 24 hours following the seeding, 10 μM Ara-C was added to inhibit growth and proliferation of non-neuron cells, such that the cerebellar granule neurons have purity not less than 95%. Glucose was added during culture to provide supplementary energy for cellular metabolism. Experiments were carried out at 8 DIV.
as §2, with “cerebellar granule neurons” for “primary”, “for 8 days” for “cortical neurons at 10 DIV”, “μM)” for “nM)”

[3] = test system: cortical neurons; assay: Hypoxia-induced damage of cortical neurons; conditions: hypoxia 1% oxygen, 12 hours; pretreated 30 min, MK801 10 μM, YC-6 different concentrations; compared with the control group
Protocol: as §1
The primary cultured cortical neurons at 10 DIV were divided into four groups: control group, hypoxia group, MK801+ hypoxia group, and YC-6+ hypoxia group. 3 duplicates wells were provided for each group. The control group was incubated in CO2 normoxic incubator. […]
The treatment was performed in 96-well plates. […] The crystals were dissolved after half an hour and OD value was detected at 570 nm wavelength by Microplates-Reader. 50 μL of culture medium was obtained from all groups at different time points and LDH release was determined for each well according to the supplier's instructions. Data were presented as the mean±SD, one-way ANOVA and statistically analyzed using paired-samples t-test and analysis of variance among means of multiple samples. […]

[4] = test system: spinal motor neurons; assay: Glutamate-induced excitotoxicity of spinal motor neurons; conditions: 24 hours, pre-treated 30 minutes, MK801 10 μM, YC-6 different concentrations
Protocol: Spinal cord was obtained from 15-day pregnant SD rats. The cristae membrane and blood film were removed. The spinal cord tissues of fetal rats is digested with 0.125% trypsin and then centrifuged to collect intermediate layer enriched with motor neurons. Cell debris were removed by centrifugation and cells were adhered by differential velocity adherent technique for 1 h. Suspending spinal motor neurons with slower adhering velocity were collected and seeded. 24 hours following the seeding, Ara-C was added. The Culture medium was replaced on the 3 DIV with L-15 serum free medium, followed by half medium change every 2˜3 days. Experiments were carried out on the 3-5 DIV.
The primary cultured spinal motor neurons at 5 DIV were divided into four groups: control group, glutamate group, MK801+glutamate group, and YC-6+glutamate group. The control group received no treatment. The glutamate group was treated with […] glutamate. The MK801 group and the YC-6 group were pre-treated with MK801 (10 μM) and YC-6 with different concentrations, respectively, followed by incubation at 37° C. for 30 minutes, then glutamate was added. After 24 hours, phase contrast microscope was used to observe neuronal morphologies. […] The activity of lactate dehydrogenase (LDH) was also determined for each group. […]

With `C[C@]12N[C@H](Cc3ccccc31)c1ccccc12` [MK801] the “survival rate of neurons” value ([1]; FDA staining, pre-treated 30 minutes, MK801 10 nM, YC-6 different concentrations, vs glutamate group) was “increased survival rates”, the “neuronal morphology (phase contrast microscope)” value ([1]; a great number of neurons) was “maintained intact soma and neurites” and the LDH release ([1]; pre-treated 30 minutes, MK801 10 nM, YC-6 different concentrations, vs glutamate group) was “decreased LDH release”. For the same compound, the “survival rate of neurons” value ([2]; FDA staining, pre-treated 30 minutes, MK801 10 μM, YC-6 different concentrations, vs glutamate group) was “increased survival rate”, the “neuronal morphology (phase contrast microscope)” value ([2]; majority of neurons) was “maintain the integrity of soma and processes” and the LDH release ([2]; pre-treated 30 minutes, MK801 10 μM, YC-6 different concentrations, vs glutamate group) was “decreased LDH release”. For the same compound, the “morphology of cortical neuronal cells” value [3] was “no difference in morphology” and the “number of spinal motor neurons (phase contrast microscope)” value [4] was “significantly increased”.
